Laboratory results taken from article doi:10.1101/2024.08.19.608619, “Discovery of potent SARS-CoV-2 nsp3 macrodomain inhibitors uncovers lack of translation to cellular antiviral response” (bioRxiv, 2024).
Read-outs that look alike come from different tables or passages of the source.

Experiments:
Assay in all cases: biochemical
Set-up in all cases: In vitro kinase panel profiling, per cent remaining kinase activity at 10 uM
[1] = target: T1, CK2α2(h) (Homo sapiens, UniProt P19784); conditions: atp_concentration=10, read-out: % of control remaining
T1 construct: gene CSNK2A2
From the text: (§1) We derisk potential for off-target activity by profiling the compound in a CEREP panel, a standard secondary pharmacology assessment, as well as a kinase panel to derisk a potential hinge-binding motif in our leads, and a PARP panel to derisk activity against human […]. Reassuringly, the compounds are selective, with the only off-targets being moderate human CHRM2 and KOR receptors activity associated with ASAP-0011198.

[2] = target: T2, EphB4(h) (Homo sapiens, UniProt P54760); conditions: atp_concentration=10, read-out: % of control remaining
T2 sequence (P54760 1-987): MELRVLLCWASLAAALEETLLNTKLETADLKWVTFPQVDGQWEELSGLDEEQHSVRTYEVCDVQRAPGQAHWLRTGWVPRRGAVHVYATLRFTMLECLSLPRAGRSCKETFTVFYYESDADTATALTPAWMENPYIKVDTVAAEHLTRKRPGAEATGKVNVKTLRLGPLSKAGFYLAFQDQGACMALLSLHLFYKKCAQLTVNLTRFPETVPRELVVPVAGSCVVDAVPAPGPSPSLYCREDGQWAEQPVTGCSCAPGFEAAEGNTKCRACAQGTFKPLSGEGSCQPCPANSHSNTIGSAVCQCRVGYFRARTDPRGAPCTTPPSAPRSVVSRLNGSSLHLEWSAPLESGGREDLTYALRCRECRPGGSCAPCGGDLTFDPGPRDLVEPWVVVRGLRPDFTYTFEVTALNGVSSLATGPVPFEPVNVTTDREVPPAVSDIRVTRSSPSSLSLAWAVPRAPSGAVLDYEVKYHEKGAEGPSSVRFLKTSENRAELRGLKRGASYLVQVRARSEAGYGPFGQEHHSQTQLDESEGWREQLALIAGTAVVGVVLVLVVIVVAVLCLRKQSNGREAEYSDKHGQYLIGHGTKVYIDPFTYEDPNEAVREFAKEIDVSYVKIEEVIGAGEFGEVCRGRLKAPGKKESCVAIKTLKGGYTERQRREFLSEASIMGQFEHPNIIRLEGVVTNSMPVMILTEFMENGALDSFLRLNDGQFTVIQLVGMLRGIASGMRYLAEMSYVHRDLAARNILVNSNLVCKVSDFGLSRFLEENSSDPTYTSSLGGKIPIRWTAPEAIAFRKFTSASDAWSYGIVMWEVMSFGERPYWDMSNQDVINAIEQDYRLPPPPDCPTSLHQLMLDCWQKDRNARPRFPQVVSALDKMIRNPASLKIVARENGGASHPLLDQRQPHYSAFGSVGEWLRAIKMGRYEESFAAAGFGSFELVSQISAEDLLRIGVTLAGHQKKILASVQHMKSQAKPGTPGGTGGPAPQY
From the text: as §1

[3] = target: T3, PKG1α(h) (Homo sapiens, UniProt Q13976); conditions: atp_concentration=90, read-out: % of control remaining
T3 construct: gene PRKG1; isoform alpha
T3 sequence (Q13976 1-671): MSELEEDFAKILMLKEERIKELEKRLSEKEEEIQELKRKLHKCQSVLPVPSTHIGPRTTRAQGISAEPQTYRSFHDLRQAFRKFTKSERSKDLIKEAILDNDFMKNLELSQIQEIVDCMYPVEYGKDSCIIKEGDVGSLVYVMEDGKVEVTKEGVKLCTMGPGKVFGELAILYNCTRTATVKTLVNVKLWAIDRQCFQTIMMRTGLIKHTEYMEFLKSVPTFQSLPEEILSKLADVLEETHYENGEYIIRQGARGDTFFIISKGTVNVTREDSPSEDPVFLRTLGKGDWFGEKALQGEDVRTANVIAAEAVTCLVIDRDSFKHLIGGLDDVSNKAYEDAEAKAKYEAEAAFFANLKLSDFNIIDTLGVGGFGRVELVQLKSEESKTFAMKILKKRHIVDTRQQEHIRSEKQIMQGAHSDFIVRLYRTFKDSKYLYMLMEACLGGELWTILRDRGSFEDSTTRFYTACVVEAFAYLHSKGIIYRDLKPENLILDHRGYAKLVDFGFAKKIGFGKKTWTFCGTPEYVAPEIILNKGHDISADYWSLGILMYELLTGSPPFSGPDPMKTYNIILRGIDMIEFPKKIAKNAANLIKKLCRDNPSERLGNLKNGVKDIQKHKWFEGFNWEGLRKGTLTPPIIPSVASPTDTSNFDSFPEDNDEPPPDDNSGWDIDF
From the text: as §1

[4] = target: T4, NEK2(h) (Homo sapiens, UniProt P51955); conditions: atp_concentration=120, read-out: % of control remaining
T4 sequence (P51955 1-445): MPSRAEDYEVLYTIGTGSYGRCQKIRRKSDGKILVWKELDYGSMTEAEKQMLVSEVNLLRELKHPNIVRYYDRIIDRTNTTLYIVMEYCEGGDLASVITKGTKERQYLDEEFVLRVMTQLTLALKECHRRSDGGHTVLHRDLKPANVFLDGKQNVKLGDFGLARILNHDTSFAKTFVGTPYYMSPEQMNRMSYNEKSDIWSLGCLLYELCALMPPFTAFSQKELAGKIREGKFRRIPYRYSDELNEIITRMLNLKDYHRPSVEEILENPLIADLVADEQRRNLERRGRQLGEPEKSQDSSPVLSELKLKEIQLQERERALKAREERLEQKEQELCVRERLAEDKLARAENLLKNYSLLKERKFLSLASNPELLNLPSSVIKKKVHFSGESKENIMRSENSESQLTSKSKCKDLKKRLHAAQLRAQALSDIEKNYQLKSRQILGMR
From the text: as §1

[5] = target: T5, LOK(h) (Homo sapiens, UniProt O94804); conditions: atp_concentration=120, read-out: % of control remaining
T5 construct: gene STK10
From the text: as §1

[6] = target: CDK2/cyclinA(h) (Homo sapiens, UniProt P24941); conditions: atp_concentration=45, read-out: % of control remaining
From the text: as §1

[7] = target: EphA5(h) (Homo sapiens, UniProt P54756); conditions: atp_concentration=10, read-out: % of control remaining
From the text: as §1

EphA5(h), sequence (P54756 whole entry): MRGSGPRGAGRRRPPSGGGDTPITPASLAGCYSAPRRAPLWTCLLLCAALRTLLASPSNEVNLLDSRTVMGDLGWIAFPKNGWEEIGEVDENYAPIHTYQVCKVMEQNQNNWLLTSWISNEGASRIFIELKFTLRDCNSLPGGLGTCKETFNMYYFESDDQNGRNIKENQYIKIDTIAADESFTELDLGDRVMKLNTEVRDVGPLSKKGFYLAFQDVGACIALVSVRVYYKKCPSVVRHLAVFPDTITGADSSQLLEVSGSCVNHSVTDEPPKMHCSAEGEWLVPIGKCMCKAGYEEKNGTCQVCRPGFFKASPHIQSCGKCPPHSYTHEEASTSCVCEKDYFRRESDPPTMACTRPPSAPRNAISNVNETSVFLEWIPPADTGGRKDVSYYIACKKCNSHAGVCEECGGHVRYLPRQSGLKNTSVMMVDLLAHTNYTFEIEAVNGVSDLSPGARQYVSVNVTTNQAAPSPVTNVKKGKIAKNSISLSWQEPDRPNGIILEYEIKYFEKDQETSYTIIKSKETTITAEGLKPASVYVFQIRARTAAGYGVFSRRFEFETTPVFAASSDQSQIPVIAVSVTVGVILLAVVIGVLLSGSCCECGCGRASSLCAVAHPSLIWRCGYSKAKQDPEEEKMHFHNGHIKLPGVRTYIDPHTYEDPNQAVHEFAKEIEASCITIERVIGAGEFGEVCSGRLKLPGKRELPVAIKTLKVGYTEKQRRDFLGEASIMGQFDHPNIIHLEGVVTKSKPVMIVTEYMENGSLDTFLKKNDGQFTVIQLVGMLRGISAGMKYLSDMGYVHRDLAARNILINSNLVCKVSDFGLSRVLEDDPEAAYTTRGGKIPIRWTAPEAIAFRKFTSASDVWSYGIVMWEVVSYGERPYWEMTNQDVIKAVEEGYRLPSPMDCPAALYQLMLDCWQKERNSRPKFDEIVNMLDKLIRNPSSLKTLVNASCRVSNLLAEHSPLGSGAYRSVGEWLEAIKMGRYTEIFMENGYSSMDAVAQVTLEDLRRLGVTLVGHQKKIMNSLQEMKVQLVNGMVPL
T1 sequence (P19784 whole entry): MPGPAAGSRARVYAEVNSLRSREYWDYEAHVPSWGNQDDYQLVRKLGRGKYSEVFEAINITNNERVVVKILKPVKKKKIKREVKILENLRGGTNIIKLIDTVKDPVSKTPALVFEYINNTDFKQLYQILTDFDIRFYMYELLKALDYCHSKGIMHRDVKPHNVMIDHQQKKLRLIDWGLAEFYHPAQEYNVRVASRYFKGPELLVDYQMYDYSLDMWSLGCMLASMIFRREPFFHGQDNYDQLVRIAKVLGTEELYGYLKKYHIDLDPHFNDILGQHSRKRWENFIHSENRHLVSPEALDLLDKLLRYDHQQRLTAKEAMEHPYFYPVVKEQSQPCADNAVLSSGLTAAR
T5 sequence (O94804 whole entry): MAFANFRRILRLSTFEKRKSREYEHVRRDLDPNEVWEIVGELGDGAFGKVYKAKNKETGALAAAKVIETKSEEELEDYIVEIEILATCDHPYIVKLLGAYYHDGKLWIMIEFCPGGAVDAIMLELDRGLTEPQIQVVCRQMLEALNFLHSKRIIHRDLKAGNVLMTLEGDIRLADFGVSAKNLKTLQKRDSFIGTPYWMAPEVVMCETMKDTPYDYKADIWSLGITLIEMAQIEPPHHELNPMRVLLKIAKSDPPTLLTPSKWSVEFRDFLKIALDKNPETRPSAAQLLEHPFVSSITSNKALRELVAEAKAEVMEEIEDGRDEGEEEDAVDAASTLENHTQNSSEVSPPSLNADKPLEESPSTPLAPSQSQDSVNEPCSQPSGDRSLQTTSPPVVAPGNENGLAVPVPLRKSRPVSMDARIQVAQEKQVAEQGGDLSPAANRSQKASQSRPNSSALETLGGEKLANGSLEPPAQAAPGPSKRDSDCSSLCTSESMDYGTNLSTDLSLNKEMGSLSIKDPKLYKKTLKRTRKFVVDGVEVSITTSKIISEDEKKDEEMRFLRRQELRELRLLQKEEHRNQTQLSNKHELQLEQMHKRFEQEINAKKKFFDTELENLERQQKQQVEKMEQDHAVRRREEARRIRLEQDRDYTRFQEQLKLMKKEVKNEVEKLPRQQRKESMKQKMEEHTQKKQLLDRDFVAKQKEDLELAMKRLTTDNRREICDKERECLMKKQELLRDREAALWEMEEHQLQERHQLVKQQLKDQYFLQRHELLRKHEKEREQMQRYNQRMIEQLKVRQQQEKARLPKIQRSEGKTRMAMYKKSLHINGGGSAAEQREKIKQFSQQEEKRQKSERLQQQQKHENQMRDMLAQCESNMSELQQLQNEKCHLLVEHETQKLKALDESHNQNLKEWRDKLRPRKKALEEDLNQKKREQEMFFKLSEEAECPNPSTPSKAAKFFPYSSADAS

Cc1nn(C)cc1-c1cc2c(NC(c3ccc4c(c3)S(=O)(=O)CCC4)C(C)C)ncnc2[nH]1 (stereo not drawn) [ASAP-0011446]
remaining activity at 10 µM ([1]; batch_name=ASAP-0011446-002): 92% | remaining activity at 10 µM ([2]; batch_name=ASAP-0011446-002): 98% | remaining activity at 10 µM ([3]; batch_name=ASAP-0011446-002): 128% | remaining activity at 10 µM ([4]; batch_name=ASAP-0011446-002): 98% | remaining activity at 10 µM ([5]; batch_name=ASAP-0011446-002): 93% | remaining activity at 10 µM ([6]; batch_name=ASAP-0011446-002): 107% | remaining activity at 10 µM ([7]; batch_name=ASAP-0011446-002): 74%

C[C@H](C(=O)O)[C@@H](NC(=O)c1ncnc2[nH]ccc12)c1ccc(Br)cc1 [ASAP-0014722]
remaining activity at 10 µM ([1]; batch_name=ASAP-0014722-002): 91% | remaining activity at 10 µM ([2]; batch_name=ASAP-0014722-002): 105% | remaining activity at 10 µM ([3]; batch_name=ASAP-0014722-002): 118% | remaining activity at 10 µM ([4]; batch_name=ASAP-0014722-002): 101% | remaining activity at 10 µM ([5]; batch_name=ASAP-0014722-002): 97% | remaining activity at 10 µM ([6]; batch_name=ASAP-0014722-002): 102% | remaining activity at 10 µM ([7]; batch_name=ASAP-0014722-002): 99%

COc1ccc([C@H](Cc2nnn[nH]2)NC(=O)c2ncnc3[nH]ccc23)cc1 [ASAP-0015381]
remaining activity at 10 µM ([1]; batch_name=ASAP-0015381-001): 93% | remaining activity at 10 µM ([2]; batch_name=ASAP-0015381-001): 106% | remaining activity at 10 µM ([3]; batch_name=ASAP-0015381-001): 121% | remaining activity at 10 µM ([4]; batch_name=ASAP-0015381-001): 106% | remaining activity at 10 µM ([5]; batch_name=ASAP-0015381-001): 102% | remaining activity at 10 µM ([6]; batch_name=ASAP-0015381-001): 113% | remaining activity at 10 µM ([7]; batch_name=ASAP-0015381-001): 102%
